# Patent US10272095B2 (GlaxoSmithKline Intellectual Property Development Limited, priority 2015, dated 2019)
# Counter-ions that a name gives are not always drawn.
# System: NQO1 specific enzyme activity in BEAS-2B cells
# Assay: BEAS-2B NQO1 MTT assay
# Format: cell-based
# Conditions: Homo sapiens, BEAS-2B, 48 h, NQO1 specific enzyme activity induction in BEAS-2B cells, 48 hours; read-out: EC50
# Outline: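 BEAS-2B cells exposed to compound 48 h at 37° C, 5% CO2, then lysed. NQO1 activity read kinetically in lysate with MTT cocktail (absorbance 570 nm, 30 min); Cell Titer Glo run on a lysate aliquot. pEC50 from ΔOD/min versus log concentration, 3-parameter fit.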
row,Compound,EC50
1,"Cc1c([C@H](c2ccc3c(c2)[C@H](N2Cc4ncccc4OC(C)(C)C2)CC3)C(C)(C)C(=O)O)ccc2c1nnn2C (racemic) [Example 67, rac-(R)-3-(1,4-Dimethyl-1H-benzo[d][1,2,3]triazol-5-yl)-3-(rac-(S)-3-(2,2-dimethyl-2,3-dihydropyrido[2,34][1,4]oxazepin-4(5H)-yl)-2,3-dihydro-1H-inden-5-yl)-2,2-dimethylpropanoic Acid, Trifluoroacetic Acid Salt]",< 1 nM
2,"COc1ccc2c(c1)CN(C1CCc3ccc(C(CC(=O)O)c4ccc5c(nnn5C)c4C)cc31)CC(C)(C)O2 (centres unmarked) [Example 23, 3-(1,4-Dimethyl-1H-benzo[d][1,2,3]triazol-5-yl)-3-(3-(7-methoxy-2,2-dimethyl-2,3-dihydrobenzo[f][1,4]oxazepin-4(5H)-yl)-2,3-dihydro-1H-inden-5-yl)propanoic Acid]",1 to 10 nM
3,"Cc1c(C(c2ccc3c(c2)C(N2Cc4cccnc4O[C@@H](C)C2)CC3)C(C)(C)C(=O)O)ccc2c1nnn2C (stereo partly drawn) [Example 49, 3-(1,4-Dimethyl-1H-benzo[d][1,2,3]triazol-5-yl)-2,2-dimethyl-3-(3-((S)-2-methyl-2,3-dihydropyrido[3,2-f][1,4]oxazepin-4(5H)-yl)-2,3-dihydro-1H-inden-5-yl)propanoic Acid, Formic Acid Salt]",10 to 100 nM
4,"CCCc1cn(CCC(CC(=O)O)c2ccc3c(c2)C(N2Cc4ccccc4OC(C)(C)C2)CC3)nn1 (centres unmarked) [Example 63, 3-(3-(2,2-Dimethyl-2,3-dihydrobenzo[f][1,4]oxazepin-4(5H)-yl)-2,3-dihydro-1H-inden-5-yl)-5-(4-propyl-1H-1,2,3-triazol-1-yl)pentanoic Acid, Trifluoroacetic Acid Salt]",1000 to 10000 nM
5,"Cc1c(C(CC(=O)O)c2ccc3c(c2)C(N2Cc4cccnc4O[C@H](C)C2)CC3)ccc2c1nnn2C (stereo partly drawn) [Example 61, 3-(1,4-Dimethyl-1H-benzo[d][1,2,3]triazol-5-yl)-3-(3-((R)-2-methyl-2,3-dihydropyrido[3,2-f][1,4]oxazepin-4(5H)-yl)-2,3-dihydro-1H-inden-5-yl)propanoic Acid, Formic Acid Salt]",1000 to 10000 nM
6,"CC[C@@H]1CN(C2CCc3ccc(C(c4ccc5c(nnn5C)c4C)C(C)(C)C(=O)O)cc32)Cc2cnccc2O1 (stereo partly drawn) [Example 37, 3-(1,4-Dimethyl-1H-benzo[d][1,2,3]triazol-5-yl)-3-(3-((R)-2-ethyl-2,3-dihydropyrido[3,4-f][1,4]oxazepin-4(5H)-yl)-2,3-dihydro-1H-inden-5-yl)-2,2-dimethylpropanoic Acid, Formic Acid Salt]",1 to 10 nM
7,"CC[C@@H]1CN([C@H]2CCc3ccc([C@H](c4ccc5c(nnn5C)c4C)C(C)(C)C(=O)O)cc32)Cc2cnccc2O1 (relative stereo) [Example 76, rel-(R)-3-(1,4-Dimethyl-1H-benzo[d][1,2,3]triazol-5-yl)-3-(rel-(S)-3-((R)-2-ethyl-2,3-dihydropyrido[3,4-f][1,4]oxazepin-4(5H)-yl)-2,3-dihydro-1H-inden-5-yl)-2,2-dimethylpropanoic acid]",1000 to 10000 nM
8,"Cc1c(C(CC(=O)O)c2ccc3c(c2)C2C(C3)OC(=O)N2CC2CCCCC2)ccc2c1nnn2C (centres unmarked) [Example 20, 3-(3-(Cyclohexylmethyl)-2-oxo-3,3a,8,8a-tetrahydro-2H-indeno[1,2-d]oxazol-5-yl)-3-(1,4-dimethyl-1H-benzo[d][1,2,3]triazol-5-yl)propanoic Acid]",100 to 1000 nM
9,"Cc1ccc2c(c1)CN(C1CCc3ccc(C(c4ccc5c(nnn5C)c4C)C(C)(C)C(=O)O)cc31)C[C@@H](C)O2 (stereo partly drawn) [Example 31, 3-(1,4-Dimethyl-1H-benzo[d][1,2,3]triazol-5-yl)-3-(3-((R)-2,7-dimethyl-2,3-dihydrobenzo[f][1,4]oxazepin-4(5H)-yl)-2,3-dihydro-1H-inden-5-yl)-2,2-dimethylpropanoic Acid, Formic Acid Salt]",1 to 10 nM
10,"Cc1cc(F)ccc1C(CC(=O)O)c1ccc2c(c1)C(N1Cc3cccnc3OC(C)(C)C1)CC2 (centres unmarked) [Example 60, 3-(3-(2,2-Dimethyl-2,3-dihydropyrido[3,2-f][1,4]oxazepin-4(5H)-yl)-2,3-dihydro-1H-inden-5-yl)-3-(4-fluoro-2-methylphenyl)propanoic Acid, Formic Acid Salt]",100 to 1000 nM
11,"Cc1c(C(c2ccc3c(c2)C(N2Cc4cccnc4OC(C)(C)C2)CC3)C(C)(C)C(=O)O)ccc2c1nnn2C (centres unmarked) [Example 34, 3-(1,4-Dimethyl-1H-benzo[d][1,2,3]triazol-5-yl)-3-(3-(2,2-dimethyl-2,3-dihydropyrido[3,2-f][1,4]oxazepin-4(5H)-yl)-2,3-dihydro-1H-inden-5-yl)-2,2-dimethylpropanoic acid, Formic Acid Salt]",1 to 10 nM
12,"Cc1c(C(c2ccc3c(c2)C(N2Cc4cccnc4O[C@H](C)C2)CC3)C(C)(C)C(=O)O)ccc2c1nnn2C (stereo partly drawn) [Example 42, 3-(1,4-Dimethyl-1H-benzo[d][1,2,3]triazol-5-yl)-2,2-dimethyl-3-(3-((R)-2-methyl-2,3-dihydropyrido[3,2-f][1,4]oxazepin-4(5H)-yl)-2,3-dihydro-1H-inden-5-yl)propanoic Acid, Formic Acid Salt]",1 to 10 nM
13,"COc1cc(C(CC(=O)O)c2ccc3c(c2)C(N2Cc4cc(C)ccc4O[C@H](C)C2)CC3)c(C)c2nnn(C)c12 (stereo partly drawn) [Example 39, 3-(3-((R)-2,7-Dimethyl-2,3-dihydrobenzo[f][1,4]oxazepin-4(5H)-yl)-2,3-dihydro-1H-inden-5-yl)-3-(7-methoxy-1,4-dimethyl-1H-benzo[d][1,2,3]triazol-5-yl)propanoic Acid, Formic Acid Salt]",1 to 10 nM
14,"Cn1nnc2cc(C(CC(=O)O)c3ccc4c(c3)C(N3Cc5cccnc5OC(C)(C)C3)CC4)ncc21 (centres unmarked) [Example 62, 3-(3-(2,2-Dimethyl-2,3-dihydropyrido[3,2-f][1,4]oxazepin-4(5H)-yl)-2,3-dihydro-1H-inden-5-yl)-3-(3-methyl-3H-[1,2,3]triazolo[4,5-c]pyridin-6-yl)propanoic Acid, Formic Acid Salt]",1000 to 10000 nM
15,"CC[C@@H]1CN([C@@H]2CCc3ccc(C(c4ccc5c(nnn5C)c4C)C(C)(C)C(=O)O)cc32)Cc2cnccc2O1 (relative stereo) [Example 75, rel-(S)-3-(1,4-Dimethyl-1H-benzo[d][1,2,3]triazol-5-yl)-3-(rel-(R)-3-((R)-2-ethyl-2,3-dihydropyrido[3,4-f][1,4]oxazepin-4(5H)-yl)-2,3-dihydro-1H-inden-5-yl)-2,2-dimethylpropanoic acid]",10 to 100 nM
16,"COc1cc(C(CC(=O)O)c2ccc3c(c2)C(N2Cc4cccnc4OC(C)(C)C2)CC3)c(C)c2nnn(C)c12 (centres unmarked) [Example 44, 3-(3-(2,2-Dimethyl-2,3-dihydropyrido[3,2-f][1,4]oxazepin-4(5H)-yl)-2,3-dihydro-1H-inden-5-yl)-3-(7-methoxy-1,4-dimethyl-1H-benzo[d][1,2,3]triazol-5-yl)propanoic Acid, Formic Acid Salt]",1 to 10 nM
17,"COc1cc(C(CC(=O)O)c2ccc3c(c2)C2C(CCN2C(=O)OC(C)(C)C)C3)c(C)c2nnn(C)c12 (centres unmarked) [Example 18, 3-(1-(tert-Butoxycarbonyl)-1,2,3,3a,4,8b-hexahydroindeno[1,2-b]pyrrol-7-yl)-3-(7-methoxy-1,4-dimethyl-1H-benzo[d][1,2,3]triazol-5-yl)propanoic Acid]",10 to 100 nM
18,"CCC1CCC(CN2C(=O)CC3Cc4ccc(C(CC(=O)O)c5ccc6c(nnn6C)c5C)cc4C32)CC1 (centres unmarked) [Example 2, 3-(1,4-Dimethyl-1H-1,2,3-benzotriazol-5-yl)-3-{1-[(4-ethylcyclohexyl)methyl]-2-oxo-1H,2H,3H,3aH,4H,8bH-indeno[1,2-b]pyrrol-7-yl}propanoic Acid]",10 to 100 nM
19,"Cc1ccc2c(c1)OC(C)(C)CN(C1CCc3ccc(C(CC(=O)O)c4ccc5c(nnn5C)c4C)cc31)C2 (centres unmarked) [Example 24, 3-(1,4-Dimethyl-1H-benzo[d][1,2,3]triazol-5-yl)-3-(3-(2,2,8-trimethyl-2,3-dihydrobenzo[f][1,4]oxazepin-4(5H)-yl)-2,3-dihydro-1H-inden-5-yl)propanoic Acid, Formic Acid Salt]",1 to 10 nM
20,"CC[C@@H]1CN(C2CCc3ccc(C(CC(=O)O)c4cc(OC)c5c(nnn5C)c4C)cc32)Cc2ccccc2O1 (stereo partly drawn) [Example 45, 3-(3-((R)-2-Ethyl-2,3-dihydrobenzo[f][1,4]oxazepin-4(5H)-yl)-2,3-dihydro-1H-inden-5-yl)-3-(7-methoxy-1,4-dimethyl-1H-benzo[d][1,2,3]triazol-5-yl)propanoic Acid, Formic Acid Salt]",10 to 100 nM
